Laboratory results from ChEMBL document CHEMBL1142091, “Azithromycin selectively reduces tumor necrosis factor alpha levels in cystic fibrosis airway epithelial cells” (2007).
Calls of active or inactive are those of the source. No cut-off for these calls is given here.

Tests used:
IB3-1 [1] = assay: Reduction of Sp1 binding to DNA in cystic fibrosis IB3-1 cells at 8 ug after 24 hrs; format: functional
Homo sapiens [2] = organism: Homo sapiens; assay: (§1) Reduction of Sp1 binding to DNA in cystic fibrosis 16HBE14o-AS3 cells at 8 ug after 24 hrs; format: functional
Homo sapiens [3] = organism: Homo sapiens; assay: (§2) Reduction of NF-kappaB binding to DNA in cystic fibrosis 2CFSMEo cells at 8 ug after 24 hrs; format: functional
Homo sapiens [4] = organism: Homo sapiens; assay: (§3) Reduction of Sp1 binding to DNA in cystic fibrosis 2CFSMEo cells at 8 ug after 24 hrs; format: functional
Homo sapiens [5] = organism: Homo sapiens; assay: (§4) Reduction of NF-kappaB binding to DNA in cystic fibrosis 16HBE14o-AS3 cells at 8 ug after 24 hrs; format: functional
IB3-1 [6] = assay: Reduction of NF-kappaB binding to DNA in cystic fibrosis IB3-1 cells at 8 ug after 24 hrs; format: functional
IB3-1 [7] = assay: Reduction of TNFalpha protein level in cystic fibrosis IB3-1 cells at 8 ug after 24 hrs by ELISA relative to control; format: functional, Homo sapiens; parameters: scale not given: the % may be the effect or the level left
[8] = Cell viability of 2CFSMEo cells at 16 ug/ml after 24 hrs by trypan blue exclusion test; format: functional; conditions: Homo sapiens
[9] = Cell viability of IB3-1 cells at 16 ug/ml after 24 hrs by trypan blue exclusion test; format: functional, cell-based; conditions: Homo sapiens
[10] = as §1; format: functional, Homo sapiens; parameters: scale not given: the % may be the effect or the level left
[11] = Reduction of TNFalpha mRNA level in cystic fibrosis 16HBE14o-AS3 cells at 8 ug after 24 hrs relative to control; format: functional, Homo sapiens; parameters: scale not given: the % may be the effect or the level left
[12] = Cell viability of 16HBE14o-AS3 cells at 8 ug/ml after 24 hrs by trypan blue exclusion test; format: functional; conditions: Homo sapiens
[13] = Cell viability of IB3-1 cells at 8 ug/ml after 24 hrs by trypan blue exclusion test; format: functional, cell-based; conditions: Homo sapiens
[14] = Cell viability of 16HBE14o-S1 cells at 16 ug/ml after 24 hrs by trypan blue exclusion test; format: functional, cell-based; conditions: Homo sapiens
[15] = Reduction of TNFalpha protein level in cystic fibrosis 16HBE14oAS3 cells at 8 ug after 24 hrs by ELISA relative to control; format: functional, Homo sapiens; parameters: scale not given: the % may be the effect or the level left
[16] = as §2; format: functional, Homo sapiens; parameters: scale not given: the % may be the effect or the level left
[17] = as §3; format: functional, Homo sapiens; parameters: scale not given: the % may be the effect or the level left
[18] = Cell viability of C38 cells at 8 ug/ml after 24 hrs by trypan blue exclusion test
[19] = Cell viability of 2CFSMEo cells at 8 ug/ml after 24 hrs by trypan blue exclusion test; format: functional; conditions: Homo sapiens
[20] = as §4; format: functional, Homo sapiens; parameters: scale not given: the % may be the effect or the level left
[21] = Cell viability of 16HBE14o-S1 cells at 8 ug/ml after 24 hrs by trypan blue exclusion test; format: functional, cell-based; conditions: Homo sapiens
[22] = Cell viability of 16HBE14o-AS3 cells at 16 ug/ml after 24 hrs by trypan blue exclusion test; format: functional; conditions: Homo sapiens
[23] = Cell viability of C38 cells at 16 ug/ml after 24 hrs by trypan blue exclusion test
[24] = Reduction of TNFalpha mRNA level in cystic fibrosis 2CFSMEo cells at 8 ug after 24 hrs relative to control; format: functional, Homo sapiens; parameters: scale not given: the % may be the effect or the level left
[25] = Reduction of TNFalpha protein level in cystic fibrosis 2CFSMEo cells at 8 ug after 24 hrs by ELISA relative to control; format: functional, Homo sapiens; parameters: scale not given: the % may be the effect or the level left
IB3-1 [26] = assay: Reduction of TNFalpha mRNA level in cystic fibrosis IB3-1 cells at 8 ug after 24 hrs relative to control; format: functional, Homo sapiens; parameters: scale not given: the % may be the effect or the level left

For `CO[C@@H]1[C@@H](O[C@@H]2O[C@H](C)[C@@H](O[C@H]3C[C@@](C)(O)[C@@H](OC(=O)CC(C)C)[C@H](C)O3)[C@H](N(C)C)[C@H]2O)[C@@H](CC=O)C[C@@H](C)[C@@H](O)/C=C/C=C/C[C@@H](C)OC(=O)C[C@H]1OC(C)=O`, the Activity (IB3-1 [1]; Homo sapiens) was “inactive”, the Activity (Homo sapiens [2]) was “inactive” and the Activity (Homo sapiens [3]) was “inactive”. For the same compound, the Activity (Homo sapiens [4]) was “inactive”, the Activity (Homo sapiens [5]) was “inactive” and the Activity (IB3-1 [6]; Homo sapiens) was “inactive”.
`CC[C@H]1OC(=O)[C@H](C)[C@@H](O[C@H]2C[C@@](C)(OC)[C@@H](O)[C@H](C)O2)[C@H](C)[C@@H](O[C@@H]2O[C@H](C)C[C@H](N(C)C)[C@H]2O)[C@](C)(O)C[C@@H](C)CN(C)[C@H](C)[C@@H](O)[C@]1(C)O` [AZITHROMYCIN] gave an Activity (IB3-1 [1]) of 60%, an Activity (IB3-1 [7]) of 45% and an Activity [8] of under 95%. It also gave an Activity [9] of under 95%, an Activity [10] of 64% and an Activity [11] of 25%. For the same compound, the Activity [12] was over 95%, the Activity [13] was over 95% and the Activity [14] was under 95%. It also gave an Activity [15] of 50%, an Activity [16] of 45% and an Activity [17] of 65%. The Activity [18] was over 95%, the Activity [19] was over 95% and the Activity [20] was 45%. The Activity [21] was over 95%, the Activity [22] was under 95% and the Activity [23] was under 95%. The Activity [24] was 30%, the Activity [25] was 40% and the Activity (IB3-1 [6]) was 40%. The Activity (IB3-1 [26]) was 35%.
